Assay results as given in patent publication US20220280581A1, “BENEFICIAL BACTERIA AND SECRETORY IMMUNOGLOBULIN A” (priority 2019, published 2022).

Legend:
[1] = system: Caco-2 colonic cells co-cultured with HT29-MTX E12 cells; experiment: Bacterial adherence to colonocyte co-cultures; format: cell-based, human
Description: Mammalian cell culture binding assays: Caco-2 colonic cells were co-cultured with HT29-MTX E12 cells at a ratio of 3:1 and seeded at a density of 5×10^4 cells/well in 24-well plates, maintained as described above. On day 1 post-confluence, medium was removed, the cells washed once with PBS, and DMEM without FBS or antibiotics was added prior to binding assay. Bacteria were prepared as described above, with or without SIgA and resuspended in PBS at 1×10^7 CFU/mL. 4×10^5 CFU were added to the colonocytes and the plate was centrifuged at 600×g for 5 min to ensure bacteria association with the cells. After 2 h of incubation at 37° C. in 5% CO2, medium was removed and saved for cytokine analysis. Cells were washed once with PBS, and to one set of replicates, cells were lysed with 0.5% Triton X-100 and serial dilutions of the cell suspensions were plated on MRS and incubated anaerobically at 37° C. overnight to test viability. To a second set of replicates, TRIzol (15596018; Life Technologies) was added directly to washed cells for RNA extraction.

pooled human milk SIgA = experiment: Binding of SIgA to bacteria by flow cytometry
Description: Binding of sIgA to bacteria. Bacteria from Table 1 were resuspended in 0.8% saline at a concentration of 1×10^7 CFU/mL. SIgA was then added at 0, 10, 100, 500 and 1000 μg per 1×10^7 colony forming units (CFU) of bacteria and incubated at 24° C. for 30 min. Following incubation, bacteria were pelleted at 14000×g for 4 min and washed with saline twice to remove non-adherent SIgA.
Flow cytometry and immunofluorescence: To measure binding cells were fixed using 4% w/v paraformaldehyde for 30 min, washed with PBS, then incubated with 1% bovine serum albumin (BSA) blocking buffer for 1 h. Cells were stained with 1/100 dilution SYTOT™ 9 (S34854, ThermoFisher) for live cells and goat anti-human IgA conjugated to Alexa 647 fluorophore using 1/50 dilution in 1% BSA (ab96998, Abcam). For flow cytometry, all samples were acquired and analyzed on a FACScan flow cytometer (BD Biosciences, Mountain View, Calif.) using the CellQuest software program. For live/dead analyses following in vitro digestion, cells were stained with SYTOT™ 9 (1/100 dilution) for live cells and propidium iodine (1/1000 dilution) for dead cells or cells with compromised membranes.

Sal4 = experiment: BLI-Sal4 association: concentration dependence and stability; format: binding; settings: FIG. 6, BLI-Sal4

Substance: Bifidobacterium longum ssp. infantis ATCC 15697
- increased adherence to the co-culture with the addition of SIgA ([1]; first grown on LNnT): 7.5e5 CFU
- increased adherence to the co-culture with the addition of SIgA ([1]; first grown on glucose): 3.5e6 CFU
- slope of regression plot of adherent bacteria with SIgA association ([1]; lactose-grown): 4.6e3 adherent CFU per % population associated with SIgA
- Slope (adherent CFU/% SIgA association) ([1]; substrate 2'FL): 1552.0 adherent CFU/% SIgA associatio
- Slope (adherent CFU/% SIgA association) ([1]; substrate LNnT): 3606.0 adherent CFU/% SIgA associatio
- Slope (adherent CFU/% SIgA association) ([1]; substrate all (no lac)): 4887.0 adherent CFU/% SIgA associatio
- Slope (adherent CFU/% SIgA association) ([1]; substrate glucose): 6882.0 adherent CFU/% SIgA associatio
- Slope (adherent CFU/% SIgA association) ([1]; substrate lactose): −2230.0 adherent CFU/% SIgA associatio
- binding of a heterogeneous pool of SIgA (pooled human milk SIgA; 0-1000 μg SIgA per 1e7 CFU): concentration dependent
- association to SIgA when first grown on 2′FL (pooled human milk SIgA; 1% 2′FL in the final media): increased association to SIgA
- SIgA association with BLI: concentration dependence (Sal4): concentration dependent
- SIgA association with BLI: stability over time (Sal4; 6 hour): stable over a 6 hour time interval
